According to patent US20150031892A1, “SPHINGOLIPID METABOLITE MIMETICS” (Zhejiang University, priority 2012, published 2015):

Key:
Format in all cases: cell-based
[1] = tested on: HepG2; assay: MTT cytotoxicity assay, HepG2 (liver cancer); conditions: Homo sapiens
Method: (§1) Cell survival after exposure to the sphingolipid metabolite mimetics was examined by MTT cytotoxicity assay. HepG2, A431, HeLa, MCF-7 and SA cells (7000 cells/well) were seeded in each well of a 96-well plate for 24 h. New medium was added to give final concentrations of 0 to 200 μM of the sphingolipid metabolite mimetics. Then, 50 μl of 1 mg/ml 3-(4,5-dimethylthiazol-2-yl)-2,5-diphenyltetrazolium bromide (MTT, Sigma-Aldrich Chemical) was added to each well for 4 h incubation at 37° C. The purple formazan formed was then solubilized by DMSO and absorbance at 570 nm was read by a microplate reader (Molecular Devices, Sunnyvale, Calif.).

[2] = tested on: A431; assay: MTT cytotoxicity assay, A431 (squamous carcinoma); conditions: Homo sapiens, A-431
Method: as §1

[3] = tested on: SA; assay: MTT cytotoxicity assay, SA (pancreatic cancer as headed)
Method: as §1

[4] = tested on: SiHa; assay: MTT cytotoxicity assay, SiHa (ovarian cancer as headed); conditions: Homo sapiens, Cervical Cancer SiHa
[5] = tested on: SW480; assay: MTT cytotoxicity assay, SW480 (colon cancer); conditions: Homo sapiens

Structure (SMILES)	IC50 [1] [µM]	IC50 [2] [µM]	IC50 [3] [µM]	IC50 [4] [µM]	IC50 [5] [µM]
CCCCCCCCCCCCCCNC(=O)[C@@H](NC(=O)C1=C[C@H](O)[C@H](O)[C@@H](O)C1)[C@@H](C)O [NZJU64, (3S,4R,5S)-3,4,5-trihydroxy-N-((2S,3R)-3-hydroxy-1-oxo-1-(tetradecylamino)butan-2-yl)cyclohex-1-enecarboxamide]	29.9 ± 2.81	23.1 ± 2.97	33.7 ± 1.28	24.6 ± 2.04	47.8 ± 3.43
CCCCCCCCCCCCCCCCCCNC(=O)[C@@H](NS(=O)(=O)c1ccc2ccccc2c1)[C@@H](C)O [NZJU63, N-((2S,3R)-3-hydroxy-1-oxo-1-(octadecylamino)butan-2-yl)-2-naphthylsulfonamide]	19.8 ± 3.12	23.7 ± 1.46	21.2 ± 0.81	19.9 ± 3.31	69.1 ± 9.67
CCCCCCCCCCCCNC(=O)[C@@H](NC(=O)c1cc2ccccc2n1C)[C@@H](C)O [NZJU50, N-((2S,3R)-3-hydroxy-1-oxo-1-(dodecylamino)butan-2-yl)-(N-methyl)indole-2-carboxamide]	> 200	169 ± 14.7	31.3 ± 1.14	> 200	36 ± 2.87
CCCCCCCCCCCCCCCCCCNC(=O)[C@@H](NS(=O)(=O)c1ccc(C)cc1)[C@@H](C)O [NZJU58, N-((2S,3R)-3-hydroxy-1-oxo-1-(octadecylamino)butan-2-yl)-4-methylbenzsulfonamide]	75.8 ± 9.46	34 ± 1.03	47.9 ± 5.2	29.8 ± 2.23	> 200
CCCCCCCCCCCCCCCCCCNC(=O)[C@@H](NC(=O)c1ccc2cc(O)ccc2c1)[C@@H](C)O [NZJU55, N-((2S,3R)-3-hydroxy-1-oxo-1-(octadecylamino)butan-2-yl)-6-hydroxylnaphthoic-2-carboxamide]	73.7 ± 5.21	85.8 ± 1.73	84.8 ± 4.34	48.1 ± 4.67	160 ± 5.86
CCCCCCCCCCCCCCNC(=O)[C@@H](NC(=O)c1ccc2cc(O)ccc2c1)[C@@H](C)O [NZJU54, N-((2S,3R)-3-hydroxy-1-oxo-1-(tetradecylamino)butan-2-yl)-6-hydroxylnaphthoic-2-carboxamide]	23.6 ± 1.16	24.4 ± 1.27	24.2 ± 0.83	30.1 ± 3.01	33.2 ± 1.08
CCCCCCCCCCCCNC(=O)[C@@H](NC(=O)c1ccc2cc(O)ccc2c1)[C@@H](C)O [NZJU53, N-((2S,3R)-3-hydroxy-1-oxo-1-(dodecylamino)butan-2-yl)-6-hydroxylnaphthoic-2-carboxamide]	43 ± 4.04	33 ± 3.55	37.1 ± 1.17	27.4 ± 2.07	58.1 ± 4.37
CCCCCCCCCCCCCCCCCCNC(=O)[C@@H](NS(=O)(=O)c1cccs1)[C@@H](C)O [NZJU61, N-((2S,3R)-3-hydroxy-1-oxo-1-(octadecylamino)butan-2-yl)-2-thiophene sulfonamide]	> 200	> 200	> 200	> 200	> 200
CCCCCCCCCCCCNC(=O)[C@@H](NS(=O)(=O)c1cccs1)[C@@H](C)O [NZJU59, N-((2S,3R)-3-hydroxy-1-oxo-1-(dodecylamino)butan-2-yl)-2-thiophene sulfonamide]	25.9 ± 1.21	22 ± 0.86	20.1 ± 1.65	30.9 ± 1.28	41 ± 2.25
CCCCCCCCCCCCNC(=O)[C@@H](NS(=O)(=O)c1ccc(C)cc1)[C@@H](C)O [NZJU56, N-((2S,3R)-3-hydroxy-1-oxo-1-(dodecylamino)butan-2-yl)-4-methylbenzsulfonamide]	25.8 ± 0.52	25.2 ± 0.99	27.2 ± 0.99	31.6 ± 4.56	39.9 ± 2.54
CCCCCCCCCCCCCCCCCCNC(=O)[C@@H](NC(=O)c1cc2ccccc2n1C)[C@@H](C)O [NZJU52, N-((2S,3R)-3-hydroxy-1-oxo-1-(octadecylamino)butan-2-yl)-(N-methyl)indole-2-carboxamide]	> 200	61 ± 1.82	36.37 ± 0.19	113 ± 12	36 ± 3.23
